Source: patent US20100137208A1, “INTRATUMORALLY ADMINISTERED LACTOFERRIN IN THE TREATMENT OF MALIGNANTNEOPLASMS AND OTHER HYPERPROLIFERATIVE DISEASES” (priority 2002, published 2010)

Experiments:
[1] = tested on: murine squamous carcinoma cell line (SCCVII); assay: SCCVII floor-of-mouth tumor growth, oral rhLF and/or cisplatin; format: in vivo, C3H mice; conditions: in combination rhLF 200 mg/Kg oral days 5-12
Experimental: A murine squamous carcinoma cell line (SCCVII) was injected into the floor of the mouth through the neck skin of immunocompetent C3H mice (Day 0). […] Tumors were measured in three dimensions with calipers.
Tumor-bearing mice were randomized into a control group and seven groups receiving rhLF and/or cisplatin. RhLF (4 mg; 200 mg/Kg) was administered once daily by oral gavage for 8 days on days 5 through 12. Cisplatin was administered as a single dose of 5 mg/Kg given intraperitoneally either at the start of rhLF (day 5), in the middle (day 8) or at the end (day 12) of rhLF therapy. Animals were sacrificed on day 12 post-implantation and the residual tumor masses were measured and processed for later additional analyses.
A murine squamous carcinoma cell line (SCCVII) was injected into the floor of the mouth through the neck skin of immunocompetent C3H mice (Day 0) as described in Example 6. On Day 5 days after initial implantation, tumors were measured for the baseline, then treated with either cisplatin (Day 8, i.p., 5 mg/kg) alone or cisplatin plus three doses of oral rhLF (daily by gavage for 7-8 days on days 5 through 11/12). Animals were sacrificed on Day 11/12 and tumors measured.

[2] = tested on: murine squamous carcinoma cell line (SCCVII); assay: SCCVII floor-of-mouth tumor growth, docetaxel with or without oral rhLF; format: in vivo, C3H mice; conditions: docetaxel i.v. bolus 31.3 mg/kg Day 8, in combination rhLF 200 mg/kg oral days 5 to 12
Experimental: A murine squamous carcinoma cell line (SCCVII) was injected into the floor of the mouth through the neck skin of immunocompetent C3H mice (Day 0) as described in Example 7. On Day 5 after initial implantation, tumors were measured for the baseline, then treated with either oral placebo alone (once daily from days 5 to 12; 6 animals), placebo and docetaxel (i.v. bolus of 31.3 mg/kg docetaxel on Day 8; 9 animals), or docetaxel plus oral rhLF (200 mg/kg, administered once daily by gavage from days 5 to 12; 9 animals). Animals were sacrificed on Day 14 and tumors measured. Docetaxel alone caused an inhibition of tumor growth relative to placebo and the combination of rhLF and docetaxel induced a further growth inhibition.

Compound | TGI (%) Relative to Placebo ([1]; cisplatin 5 mg/Kg i.p. on day 5) [%] | TGI (%) Relative to Placebo ([1]; cisplatin 5 mg/Kg i.p. on day 8) [%] | TGI (%) Relative to Placebo ([1]; cisplatin 5 mg/Kg i.p. on day 12) [%] | TGI (%) Relative to Placebo ([1]; pooled cisplatin schedules (day 5, 8, 12)) [%] | TGI (%) Relative to Placebo ([2]; Day 14) [%] | Tumor Growth ([2]; measured Day 14)
N.N.[Cl][Pt][Cl] [CP, Cisplatin] | 68 | 6 | 42 | 38 | – | –
CC(=O)O[C@@]12CO[C@@H]1C[C@H](O)[C@@]1(C)C(=O)[C@H](O)C3=C(C)[C@@H](OC(=O)[C@H](O)[C@@H](NC(=O)OC(C)(C)C)c4ccccc4)C[C@@](O)([C@@H](OC(=O)c4ccccc4)[C@H]21)C3(C)C [Docetaxel] | – | – | – | – | 59 | 2,103
